Reference: a melting point compilation (Tetko et al.; mined from patent text by program, amines drawn as free bases though some values may be those of a salt)

| SMILES | melting point |
| --- | --- |
| CCc1cc2c(s1)-n1c(C3CCCCC3)nnc1C(N)N=C2c1ccccc1Cl (stereo not given) | 175 to 176 °C |
| CC1(C(O)CBr)COc2cc(Cl)ccc2O1 (stereo not given) | 133 to 135 °C |
| O=C(NC=CCc1cn(C2CC(O)C(CO)O2)c(=O)[nH]c1=O)C(F)(F)F (stereo not given) | 183 to 184 °C |
| COc1cccc2c1C(=O)N(CC(=O)N1c3ccccc3N(Cc3ccccc3)C(=O)[C@H]3CCC[C@H]31)C2=O (relative stereo) | 247 to 248 °C |
| CC(C)OC(=O)c1cc(-n2c(=O)c3c(n(C)c2=O)OCC3)c(F)cc1Cl | 170 to 173 °C |
| Nc1c(-c2ccc(C(F)(F)F)cc2F)nnn1Cc1ccc(O)cc1 | 168 to 170 °C |
| COc1ccc(-c2ccnc3[nH]c4ccccc4c23)cc1 | 208 to 210 °C |
| O=C(C=Cc1ccc(N2CCOCC2)cc1)c1ccc2c(c1)CCCC2 | 138 to 140 °C |
| CN1CCN(Cc2nc3ccccc3[nH]2)CC1 | 179 to 183 °C |
| COc1ccc(C(=O)Nc2ccccc2)cc1NS(=O)(=O)c1cccc2cccnc12 | 187 to 188 °C |
| O=C(NCCOCCO)C12CC3CC(CC(C3)C1)C2 | 72 to 73 °C |
| CCOC(=O)N(c1ccccc1N)c1cccc(C)c1C | 95 to 97 °C |
| O=C(O)C1=CSC2C(=Cc3nc4ncc5c(n4n3)CCC3(C5)OCCO3)C(=O)N12 (stereo not given) | > 250 °C |
| CC1NC(=O)NN=C1c1ccc(OCC(=O)NN)c(Cl)c1 (stereo not given) | 252 to 254 °C |
| CC(=O)NC[C@H]1CN(c2ccc(C3CCNCC3)cc2)C(=O)O1 | 146 to 148 °C |
| O=C(O)Cc1ccccc1OCCCc1cn(-c2ccc(C(F)(F)F)cn2)nc1-c1ccccc1 | 133 to 134 °C |
| O=[N+]([O-])C=C1C[N+]([O-])=C(c2ccccc2F)c2cc([N+](=O)[O-])ccc2N1 | 216 to 220 °C |
| CCCC(NS(=O)(=O)NC(=O)OCc1ccccc1)C(=O)OC (stereo not given) | 76 to 78 °C |
| CCCCCCCCOC(=O)Oc1ccc(-c2ccc(C#N)cc2)cc1 | 51.6 °C |
| OCCC#Cc1cnc2ccccc2c1 | 95.7 to 96.7 °C |
| Nc1nc(N)nc(N2CCNCC2)n1 | 262 to 268 °C |

Now from value to compound:

| melting point | SMILES |
| --- | --- |
| 76 to 79 °C | COC(=O)c1cccc2nc(SCCCN3CCN(CC(=O)Nc4c(SC)cc(C)nc4SC)CC3)oc12 |
| 200 °C | COc1ccccc1Nc1ccc2c(c1)OCc1cc([N+](=O)[O-])ccc1C2=O |
| 148 to 149 °C | CN1CCCC1=NC(=O)Nc1cccc2ccccc12 |
| 133 to 135 °C | O=C(NCCCCC(NS(=O)(=O)c1ccc2oc3ccccc3c2c1)C(=O)O)OCc1ccccc1 (stereo not given) |
| 289 to 290 °C | Cc1cc2oc(C(=O)O)cc(=O)c2c(C)c1Cl |
| 238 to 239 °C | O=C(O)CCc1c(C(=O)O)[nH]c2cc(-c3ccccc3)ccc12 |
| 250 °C | NS(=O)(=O)c1ccc(-c2cccc(-c3nc(-c4ccc(C(F)(F)F)nc4)cc(C(F)(F)F)n3)c2)s1 |
| 349 to 350 °C | O=C(Nc1nccs1)c1cnc2ccccc2c1O |
| 185 to 187 °C | Cc1cc(NCC(C)C)c([N+](=O)[O-])c2nnnn12 |
| 48 to 49 °C | COC(CNc1nc(C)nc2cccc(C)c12)OC |
| 81 °C | COc1cccc(Cc2oc3ccc(OC)cc3c2CC#N)c1 |
| 213 to 215 °C | O=C(O)c1nc2c(=O)[nH]c3cc(C(F)(F)F)ccc3n2c1Cn1cnc(Cl)c1Cl |
| 100 to 104 °C | Cc1nc(-c2cnccn2)no1 |
| 70 to 71 °C | O=S(CSc1ccc(Cl)cc1)c1ccccc1 (stereo not given) |
| 284 to 285 °C | Cc1nc2c3c(c(C(=O)N4CCOCC4)cc2n1C)CCC1(Cc2ccccc2C1)N3 |
| 150 °C | CCOC(=O)N1CCC(Nc2nc3ccccc3n2Cc2ccoc2C)CC1 |
| 143 to 147 °C | CCN(CC)C(=O)c1cccc2c(=O)c(C)c(-c3ccc(OC)cc3)oc12 |
| 83 to 84 °C | CCOC(=O)CON(C)C(=S)Nc1cc(Cl)ccc1C |
| 108 to 112 °C | COC(=O)c1cc(OCc2ccccc2)ccc1O |
